According to PubChem BioAssay (NCI):
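All cell lines were grown in 96-well plates and treated with compound for 48 hours. Here, GI50 denotes the concentration required for 50% inhibition of growth. TGI is the concentration that stops growth completely.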

Columns and labels:
Test in all cases: DTP human tumour cell line panel, 48 h
[1] = tested on: 786-0 renal
[2] = tested on: A498 renal
[3] = tested on: A549 NSCLC
[4] = tested on: ACHN renal
[5] = tested on: BT-549 breast
[6] = tested on: CAKI-1 renal
[7] = tested on: CCRF-CEM leukemia
[8] = tested on: COLO 205 colon
[9] = tested on: DU-145 prostate
[10] = tested on: EKVX NSCLC
[11] = tested on: HCC-2998 colon
[12] = tested on: HCT-116 colon
[13] = tested on: HCT-15 colon
[14] = tested on: HL-60(TB) leukemia
[15] = tested on: HOP-62 NSCLC
[16] = tested on: HOP-92 NSCLC
[17] = tested on: HS 578T breast
[18] = tested on: HT29 colon
[19] = tested on: IGROV1 ovarian
[20] = tested on: K-562 leukemia
[21] = tested on: KM12 colon
[22] = tested on: LOX IMVI melanoma
[23] = tested on: M14 melanoma
[24] = tested on: MALME-3M melanoma
[25] = tested on: MCF7 breast
[26] = tested on: MDA-MB-231 breast
[27] = tested on: MDA-MB-435
[28] = tested on: MOLT-4 leukemia
[29] = tested on: NCI-H226 lung
[30] = tested on: NCI-H23 lung
[31] = tested on: NCI-H460 lung
[32] = tested on: NCI-H522 lung
[33] = tested on: NCI/ADR-RES ovarian
[34] = tested on: OVCAR-3 ovarian
[35] = tested on: OVCAR-4 ovarian
[36] = tested on: OVCAR-5 ovarian
[37] = tested on: OVCAR-8 ovarian
[38] = tested on: PC-3 prostate
[39] = tested on: RPMI-8226 leukemia
[40] = tested on: RXF 393 renal
[41] = tested on: SF-268 CNS
[42] = tested on: SF-295 CNS
[43] = tested on: SF-539 CNS
[44] = tested on: SK-MEL-2 melanoma
[45] = tested on: SK-MEL-28 melanoma
[46] = tested on: SK-MEL-5 melanoma
[47] = tested on: SK-OV-3 ovarian
[48] = tested on: SN12C renal
[49] = tested on: SNB-19 CNS
[50] = tested on: SNB-75 CNS
[51] = tested on: SR leukemia
[52] = tested on: SW-620 colon
[53] = tested on: T-47D breast
[54] = tested on: TK-10 renal
[55] = tested on: U251 CNS
[56] = tested on: UACC-257 melanoma
[57] = tested on: UACC-62 melanoma
[58] = tested on: UO-31 renal

For Cc1c2cnccc2c(C)c2c1c1cc(CO)ccc1n2C, which GI50 [1] is on record?
The GI50 was 302 nM.

And the TGI [1]?
Its TGI is 2660 nM.

And the GI50 [2]?
Its GI50 is 30.5 nM.

What about the TGI [2] of the same compound?
Its TGI is 169 nM.

And the GI50 [3]?
Its GI50 is 330 nM.

What about the TGI [3] of the same compound?
The TGI was 2070 nM.

And the GI50 [4]?
Its GI50 is 66.5 nM.

What about the TGI [4] of the same compound?
The TGI was 1160 nM.

And the GI50 [5]?
The GI50 was 927 nM.

And the TGI [5]?
The TGI was 2280 nM.

And the GI50 [6]?
The GI50 was 163 nM.

What about the TGI [6] of the same compound?
The TGI was 1080 nM.

And the GI50 [7]?
The GI50 was 328 nM.

What about the TGI [7] of the same compound?
The TGI was 2610 nM.

And the GI50 [8]?
The GI50 was 258 nM.

What about the TGI [8] of the same compound?
Its TGI is 1260 nM.

And the GI50 [9]?
The GI50 was 288 nM.

And the TGI [9]?
Its TGI is 1530 nM.

What about the GI50 [10] of the same compound?
Its GI50 is 325 nM.

What about the TGI [10] of the same compound?
The TGI was 1290 nM.

What about the GI50 [11] of the same compound?
Its GI50 is 465 nM.

And the TGI [11]?
Its TGI is 1930 nM.

And the GI50 [12]?
Its GI50 is 45.4 nM.

And the TGI [12]?
Its TGI is 651 nM.

What about the GI50 [13] of the same compound?
The GI50 was 217 nM.

And the TGI [13]?
The TGI was 1310 nM.

And the GI50 [14]?
The GI50 was 408 nM.

What about the TGI [14] of the same compound?
Its TGI is 2100 nM.

And the GI50 [15]?
The GI50 was 211 nM.

What about the TGI [15] of the same compound?
Its TGI is 2330 nM.

What about the GI50 [16] of the same compound?
The GI50 was 382 nM.

And the TGI [16]?
Its TGI is 2630 nM.

And the GI50 [17]?
The GI50 was 521 nM.

What about the TGI [17] of the same compound?
The TGI was 3.13 µM.

What about the GI50 [18] of the same compound?
The GI50 was 257 nM.

What about the TGI [18] of the same compound?
The TGI was 2730 nM.

And the GI50 [19]?
The GI50 was 130 nM.

And the TGI [19]?
The TGI was 1220 nM.

What about the GI50 [20] of the same compound?
The GI50 was 264 nM.

What about the TGI [20] of the same compound?
The TGI was 1680 nM.

What about the GI50 [21] of the same compound?
Its GI50 is 303 nM.

And the TGI [21]?
The TGI was 1820 nM.

And the GI50 [22]?
Its GI50 is 255 nM.

What about the TGI [22] of the same compound?
The TGI was 1210 nM.

And the GI50 [23]?
Its GI50 is 298 nM.

What about the TGI [23] of the same compound?
The TGI was 1220 nM.

And the GI50 [24]?
The GI50 was 294 nM.

What about the TGI [24] of the same compound?
The TGI was 1180 nM.

And the GI50 [25]?
Its GI50 is 203 nM.

What about the TGI [25] of the same compound?
The TGI was 1370 nM.

What about the GI50 [26] of the same compound?
The GI50 was 348 nM.

And the TGI [26]?
The TGI was 1790 nM.

And the GI50 [27]?
Its GI50 is 349 nM.

What about the TGI [27] of the same compound?
Its TGI is 1390 nM.

And the GI50 [28]?
The GI50 was 286 nM.

What about the TGI [28] of the same compound?
Its TGI is 2380 nM.

And the GI50 [29]?
The GI50 was 109 nM.

What about the TGI [29] of the same compound?
The TGI was 570 nM.

What about the GI50 [30] of the same compound?
The GI50 was 273 nM.

And the TGI [30]?
The TGI was 1340 nM.

What about the GI50 [31] of the same compound?
The GI50 was 149 nM.

What about the TGI [31] of the same compound?
Its TGI is 571 nM.

And the GI50 [32]?
The GI50 was 350 nM.

What about the TGI [32] of the same compound?
The TGI was 1910 nM.

What about the GI50 [33] of the same compound?
Its GI50 is 187 nM.

What about the TGI [33] of the same compound?
The TGI was 1930 nM.

What about the GI50 [34] of the same compound?
Its GI50 is 295 nM.

What about the TGI [34] of the same compound?
The TGI was 1420 nM.

And the GI50 [35]?
The GI50 was 299 nM.

And the TGI [35]?
The TGI was 1200 nM.

What about the GI50 [36] of the same compound?
The GI50 was 244 nM.

What about the TGI [36] of the same compound?
The TGI was 1180 nM.

What about the GI50 [37] of the same compound?
Its GI50 is 178 nM.

What about the TGI [37] of the same compound?
The TGI was 2450 nM.

What about the GI50 [38] of the same compound?
Its GI50 is 367 nM.

What about the TGI [38] of the same compound?
The TGI was 2140 nM.

And the GI50 [39]?
The GI50 was 260 nM.

What about the TGI [39] of the same compound?
The TGI was 1380 nM.

And the GI50 [40]?
The GI50 was 209 nM.

And the TGI [40]?
Its TGI is 1040 nM.

What about the GI50 [41] of the same compound?
Its GI50 is 268 nM.

What about the TGI [41] of the same compound?
Its TGI is 1690 nM.

And the GI50 [42]?
Its GI50 is 316 nM.

And the TGI [42]?
Its TGI is 1660 nM.

And the GI50 [43]?
Its GI50 is 343 nM.

And the TGI [43]?
The TGI was 1540 nM.

And the GI50 [44]?
The GI50 was 455 nM.

And the TGI [44]?
Its TGI is 2010 nM.

And the GI50 [45]?
Its GI50 is 384 nM.

And the TGI [45]?
The TGI was 1560 nM.

What about the GI50 [46] of the same compound?
Its GI50 is 425 nM.

And the TGI [46]?
Its TGI is 1580 nM.

And the GI50 [47]?
Its GI50 is 324 nM.

And the TGI [47]?
Its TGI is 1350 nM.

What about the GI50 [48] of the same compound?
The GI50 was 187 nM.

And the TGI [48]?
Its TGI is 1650 nM.

What about the GI50 [49] of the same compound?
The GI50 was 299 nM.

And the TGI [49]?
The TGI was 2370 nM.

What about the GI50 [50] of the same compound?
The GI50 was 434 nM.

And the TGI [50]?
The TGI was 1700 nM.

What about the GI50 [51] of the same compound?
Its GI50 is 75.2 nM.

What about the GI50 [52] of the same compound?
Its GI50 is 116 nM.

What about the TGI [52] of the same compound?
Its TGI is 1390 nM.

And the GI50 [53]?
Its GI50 is 275 nM.

And the TGI [53]?
Its TGI is 3.14 µM.

And the GI50 [54]?
The GI50 was 553 nM.

And the TGI [54]?
The TGI was 4.15 µM.

And the GI50 [55]?
Its GI50 is 298 nM.

And the TGI [55]?
Its TGI is 1630 nM.

And the GI50 [56]?
The GI50 was 292 nM.

What about the TGI [56] of the same compound?
Its TGI is 1680 nM.

What about the GI50 [57] of the same compound?
The GI50 was 232 nM.

What about the TGI [57] of the same compound?
The TGI was 1030 nM.

And the GI50 [58]?
Its GI50 is 255 nM.

What about the TGI [58] of the same compound?
Its TGI is 1910 nM.
